Test results as given in patent US20180296630A1, “METHODS AND COMPOSITIONS FOR PREVENTING OR TREATING OPHTHALMIC CONDITIONS” (Stealth BioTherapeutics Corp, priority 2012, published 2018).

Test system: Trx2 in HRECs
Test: Trx2 expression in high glucose-treated HRECs (real-time PCR, Western blot)
Type: cell-based, human
Settings: 30 mM glucose co-treatment; 24 h and 48 h
Description: D-Arg-2′,6′-Dmt-Lys-Phe-NH2 increased the expression of Trx2 in the high glucose-treated HRECs. […] The mRNA expression level of Trx2 was measured by quantitative real-time PCR. Relative mRNA levels of Trx2 were normalized by 18S mRNA levels (* p<0.05 vs. the normal glucose medium group and the 30 mM high glucose treated group). Three independent samples were used for each time point.

For D-Arg-2′,6′-Dmt-Lys-Phe-NH2, the “expression of Trx2” value was “increased”.
